According to US20240307416A1, “FILM-FORMING COMPOSITIONS COMPRISING SALICYLIC ACID AND METHODS OF USE” (3M INNOVATIVE PROPERTIES COMPANY, priority 2021, published 2024):

Test: Dissolution of salicylic acid in film-forming gel components
Assay type: physicochemical

O=C(O)c1ccccc1O [salicylic acid]
Solubility of salicylic acid in the silicate tackifying resin and/or the volatile solvent: does not appear to be readily soluble
Dissolution of salicylic acid in the formulation of U.S. Pat. No. 10,603,405 (SPOx added at the end of the manufacture): did not appear dissolve and remained a solid particulate
